Results as given in ChEMBL document CHEMBL4385609, “Anti-tubulin agents of natural origin: Targeting taxol, vinca, and colchicine binding domains” (Eur J Med Chem, 2019).
≈ marks a conversion by molar mass, not a printed value. Values belong to the molecule of their own block, whether it stands above or below them.

Key:
[1] = Antiproliferative activity against mouse EMT6/AR1 cells assessed as reduction in cell growth; type: functional, cell-based
HeLa [2] = experiment: Antiproliferative activity against human HeLa cells assessed as reduction in cell growth; type: functional, cell-based
MDA-MB-231 = experiment: Antiproliferative activity against human MDA-MB-231 cells assessed as reduction in cell growth; type: functional, cell-based
MCF7 = experiment: Antiproliferative activity against human MCF7 cells assessed as reduction in cell growth; type: functional, cell-based
BGC-823 = experiment: Antiproliferative activity against human BGC823 cells assessed as reduction in cell growth incubated for 24 hrs by MTT assay; type: functional, cell-based; conditions: BGC-823, 24 h
Tubulin = experiment: Inhibition of tubulin polymerization (unknown origin); type: protein-complex assay, Homo sapiens
A549 [3] = experiment: Antiproliferative activity against human A549 cells assessed as reduction in cell growth incubated for 24 hrs by MTT assay; type: functional, cell-based; conditions: A549, 24 h
A-375 = experiment: Antiproliferative activity against human A375 cells assessed as reduction in cell growth incubated for 24 hrs by MTT assay; type: functional, cell-based; conditions: A-375, 24 h
[4] = Potency index, ratio of paclitaxel IC50 to laulimalide IC50 for cytotoxicity against human SKVLB-1 cells; type: functional
CA46 = experiment: Cytotoxicity against human CA46 cells assessed as inhibition of tubulin polymerization after 36 hrs; type: functional, cell-based; conditions: CA46, 36 h
P388 [5] = experiment: Antiproliferative activity against mouse P388 cells assessed as reduction in cell growth; type: functional, cell-based
SKM-1 = experiment: Antiproliferative activity against human SKM1 cells assessed as reduction in cell growth; type: functional, cell-based
HT-29 = experiment: Antiproliferative activity against human HT-29 cells assessed as reduction in cell growth; type: functional, cell-based
[6] = Antiproliferative activity against human MEL28 cells assessed as reduction in cell growth; type: functional, cell-based; conditions: SK-MEL-28
U-937 = experiment: Antiproliferative activity against human U937 cells assessed as reduction in cell growth; type: functional, cell-based
A549 [7] = experiment: Antiproliferative activity against human A549 cells assessed as reduction in cell growth; type: functional, cell-based
Bos taurus = organism: Bos taurus; experiment: Inhibition of bovine brain microtubule assembly at 250 uM by turbidimetric assay relative to control
[8] = Cytotoxicity against mouse tsFT210 cells; type: functional
WiDr = experiment: Antiproliferative activity against human WiDr cells assessed as reduction in cell growth incubated for 48 hrs by MTT assay; type: functional, cell-based
[9] = Antiproliferative activity against human MCF cells assessed as reduction in cell growth incubated for 48 hrs by MTT assay; type: functional, cell-based
P388 [10] = experiment: Antiproliferative activity against mouse P388 cells assessed as reduction in cell growth incubated for 48 hrs by MTT assay; type: functional, cell-based; conditions: P388, 48 h
A549 [11] = experiment: Antiproliferative activity against human A549 cells assessed as reduction in cell growth incubated for 48 hrs by MTT assay; type: functional, cell-based; conditions: A549, 48 h
HeLa [12] = experiment: Antiproliferative activity against human HeLa cells assessed as reduction in cell growth incubated for 48 hrs by MTT assay; type: functional, cell-based
K562 = experiment: Antiproliferative activity against human K562 cells assessed as reduction in cell growth incubated for 48 hrs by MTT assay; type: functional, cell-based; conditions: K562, 48 h
[13] = Antiproliferative activity against human […] cells assessed as reduction in cell growth incubated for 48 hrs by MTT assay; type: functional, cell-based

Structure (SMILES): COc1cc2cc(c1Cl)N(C)C(=O)C[C@H](OC(=O)C(C)C)[C@]1(C)O[C@@H]1[C@H](C)[C@@H]1C[C@@](O)(NC(=O)O1)[C@H](OC)/C=C/C=C(\C)C2 [ANSAMITOCIN P3]
IC50 [1]: 141 nM
IC50 (HeLa [2]): 5.06 nM
IC50 (MDA-MB-231): 15.1 nM
IC50 (MCF7): 2.06 nM

Structure (SMILES): CC[C@@]1(C)Oc2cc(c([S+]([O-])C[C@@H](O)C[C@H](N)C(=O)O)cc2O)[C@@H](O)[C@H](NC)C(=O)N[C@@H](C)C(=O)NC1C(=O)NCC(=O)O (some centres undefined)
IC50 (BGC-823): 1030 nM

Structure (SMILES): CC(C)(C)c1[nH]cnc1/C=c1\[nH]c(=O)/c(=C/c2cc(F)ccc2F)[nH]c1=O
IC50 (Tubulin): 2.6 nM

IC50 (A549 [3]): 36500 nM
IC50 (A-375): 22500 nM
Structure (SMILES): CC[C@@]1(C)Oc2cc(c([S+]([O-])CCCCCO)cc2O)[C@@H](O)[C@H](NC)C(=O)N[C@@H](C(C)C)C(=O)NC1C(=O)NCC(=O)O (some centres undefined)

IC50 (Tubulin): 1400 nM
Structure (SMILES): CC(C)(C)c1[nH]cnc1/C=c1\[nH]c(=O)/c(=C/C(=O)c2ccccc2)[nH]c1=O

Structure (SMILES): C=C1C[C@H](C)C[C@@H]2CC=C[C@@H](C/C=C\C(=O)O[C@H]([C@@H](O)/C=C/[C@@H]3CC(C)=CCO3)C[C@@H]3O[C@H]3[C@@H](O)C1)O2 [FIJIANOLIDE B]
Ratio IC50 [4]: 100

IC50 (MDA-MB-231): 120 nM
Structure (SMILES): COc1cc(/C=N/OC/C=C/C=C(\C)CCC(O)c2cccs2)cc(OC)c1OC (centres undefined)

Structure (SMILES): COc1ccc(-c2oc3cc(O)c(OC)c(O)c3c(=O)c2OC)cc1O [CENTAUREIDIN]
IC50 (CA46): 2000 nM

Structure (SMILES): C=C1C[C@@H]2C/C=C/C(=O)C/C(C)=C\C=C\C(=O)O[C@H]([C@H](O)NC(=O)/C=C\C=C\C)C/C(C)=C/[C@H](C1)O2 [ZAMPANOLIDE]
IC50 (P388 [5]): 1 to 5 ng/mL (≈ 2.02 to 10.1 nM)
IC50 (SKM-1): 1.1 nM
IC50 (HT-29): 1 to 5 ng/mL (≈ 2.02 to 10.1 nM)
IC50 [6]: 1 to 5 ng/mL (≈ 2.02 to 10.1 nM)
IC50 (U-937): 2.9 nM
IC50 (A549 [7]): 1 to 5 ng/mL (≈ 2.02 to 10.1 nM)

Structure (SMILES): COc1ccc2c(C[C@@H]3NC(=O)[C@@H]4CCCN4C3=O)c(CC=C(C)C)[nH]c2c1 [TRYPROSTATIN A]
inhibition (Bos taurus): 40%
MIC [8]: 16.4 µM (≈ 6.26 µg/mL)

IC50 (MCF7): 30 nM
Structure (SMILES): C=CCC1(CC/C(C)=C/C=C/CC/C=C\[C@]2(C)CSC([C@@H]3C[C@@H]3C)=N2)OCCO1

IC50 (P388 [10]): 180 to 330 nM
IC50 (A549 [11]): 180 to 330 nM
IC50 (HeLa [12]): 180 to 330 nM
IC50 (K562): 180 to 330 nM
Structure (SMILES): C=CC(C)(C)c1[nH]cnc1/C=C1\NC(=O)[C@H](Cc2ccccc2)NC1=O
IC50 (WiDr): 180 to 330 nM
IC50 [9]: 180 to 330 nM
IC50 [13]: 180 to 330 nM

Structure (SMILES): CC(C)=CCc1[nH]c2ccccc2c1C[C@@H]1NC(=O)[C@@H]2CCCN2C1=O [TRYPROSTATIN B]
MIC [8]: 4.4 µM (≈ 1.55 µg/mL)
